Measurements reported in PubChem BioAssay (NCI).
Where “and” joins values, the source holds several entries; their conditions need not be identical. Equal entries are not always repeated.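 Step 1: Grow cells in 96-well plates. Step 2: Expose to compound for 48 hours at 5 concentrations. Step 3: Interpolate endpoints linearly; if unreached, use highest concentration. The concentration for 50% growth inhibition is given as GI50. Definition used: TGI = concentration required for complete inhibition of growth.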

Tests used:
Test in all cases: DTP human tumour cell line panel, 48 h
A549 NSCLC = system: A549 NSCLC
ACHN renal = system: ACHN renal
EKVX NSCLC = system: EKVX NSCLC
KM12 colon = system: KM12 colon
MOLT-4 leukemia = system: MOLT-4 leukemia
NCI-H226 lung = system: NCI-H226 lung
SK-MEL-2 melanoma = system: SK-MEL-2 melanoma
SK-MEL-28 melanoma = system: SK-MEL-28 melanoma
UACC-257 melanoma = system: UACC-257 melanoma
UACC-62 melanoma = system: UACC-62 melanoma

Row | Compound | GI50 (A549 NSCLC) [µM] | TGI (A549 NSCLC) | GI50 (ACHN renal) [µM] | TGI (ACHN renal) [µM] | GI50 (EKVX NSCLC) [µM] | TGI (EKVX NSCLC) | GI50 (KM12 colon) [µM] | TGI (KM12 colon) | GI50 (MOLT-4 leukemia) [µM] | TGI (MOLT-4 leukemia) | GI50 (NCI-H226 lung) | TGI (NCI-H226 lung) | GI50 (SK-MEL-2 melanoma) | TGI (SK-MEL-2 melanoma) | GI50 (SK-MEL-28 melanoma) [µM] | TGI (SK-MEL-28 melanoma) | GI50 (UACC-257 melanoma) [µM] | TGI (UACC-257 melanoma) | GI50 (UACC-62 melanoma) [µM] | TGI (UACC-62 melanoma)
1 | O=C(Cn1c(C(=O)c2ccccc2)nc2ccccc21)c1ccc(F)cc1 | 22.9 | > 100 µM | > 59.7 | > 100 | 21.1 | > 100 µM | 2.48 | > 100 µM | 2.49 | > 28.1 µM | > 100 µM | > 100 µM | 17.4 µM | > 74 µM | 7.07 | > 100 µM | 74.3 | > 100 µM | 11.7 | > 100 µM
2 | CC(=O)O/N=C(Cl)/C(Cl)=N/OC(C)=O |  | > 100 µM |  | > 100 |  | > 100 µM |  | > 100 µM |  | > 100 µM |  | > 100 µM |  | > 100 µM |  | > 100 µM |  | > 100 µM |  | > 100 µM
3 | Nc1nc(N)c(N=Nc2ccc(C(=O)O)c(O)c2)c(N)n1 |  | > 100 µM |  | > 100 |  | > 100 µM |  | > 100 µM |  | > 100 µM |  | > 100 µM |  | > 100 µM |  | > 100 µM |  | > 100 µM |  | > 100 µM
4 | COc1cc2c(cc1OC)c1c(OC)c(OC)cc3c1c1c2sc(=S)n1CC3 |  | > 100 µM |  | > 100 |  | > 100 µM |  | > 100 µM |  | > 100 µM |  | > 100 µM |  | > 100 µM |  | > 100 µM |  | > 100 µM |  | 59.1 µM
5 | CCN(CC)CC(C)(C)C(=O)/C=C/c1ccc(/C=C/C(=O)C(C)(C)CN(CC)CC)cc1 |  | 5.76 µM |  | 3.09 |  | 3.67 µM |  | 2.16 µM |  | 0.546 µM |  | 6.97 µM |  | 3.32 µM |  | 2.28 µM |  | 4.26 µM |  | 4.89 µM
6 | NC(=Nc1nc(-c2ccccn2)cc2ccccc12)c1ccccn1 | 0.255 | > 48.7 µM | 0.0115 |  |  | > 17.2 µM | 0.336 | > 56.7 µM | 0.00109 | 0.0283 µM | 0.237 µM | 23 µM | 0.477 µM and 0.272 µM | > 89.3 µM | 0.323 | > 100 µM |  | 0.794 µM and 1.15 µM | 0.0492 | 0.171 µM and 0.266 µM
7 | CC1CC(C)C2=NOS3=C2C1=NO3 (stereo not drawn) |  | > 100 µM |  | > 100 |  | > 100 µM |  | > 100 µM |  | > 100 µM |  | > 100 µM |  | > 100 µM |  | > 100 µM |  | > 100 µM |  | > 100 µM
8 | Cc1nnc(-c2ccc(C)c(-c3ccc(C(=O)NCc4ccc(Cl)cc4)cc3)c2)o1 | 11.5 | > 25 µM | 12.4 | > 25 | 7.02 | > 25 µM | 11 | > 25 µM | 9.73 | > 25 µM | 6.93 µM | > 25 µM | 12.7 µM | > 25 µM | 14.3 | > 25 µM | 8.07 | > 25 µM | 8.21 | > 25 µM
9 | CCCCCCN(C)Cc1ccc(OCCOc2ccc(CN(C)CCCCCC)cc2)cc1 | 1.4 | 2.91 µM | 1.62 | 3.63 | 2.47 | 15.1 µM | 1.47 | 2.84 µM | 2.48 | 10.5 µM | 1.53 µM | 3.19 µM | 1.61 µM | 3.08 µM | 1.45 | 2.88 µM | 0.448 | 1.84 µM | 1.6 | 3.4 µM
10 | C[C@@H]1CC[C@@H]2[C@@H](C)C[C@H]3[C@@H]4C(C)(C)OC(=O)[C@]4(C)C(=O)[C@@]23C1=O |  | > 100 µM |  | > 100 |  | > 100 µM |  | > 100 µM |  | > 100 µM |  | > 100 µM | > 100 µM | > 100 µM |  | > 100 µM |  | > 100 µM | 70 | > 100 µM
11 | CCOc1c(C#N)c2c(N)ncnc2n1C1OC(CO)C(O)C1O (stereo not drawn) | 2.27 | > 100 µM | 2.95 | > 100 | 4.74 | > 100 µM | 3.11 | > 44.2 µM | 2.95 | 15.1 µM | 6.93 µM | > 91.8 µM | 8.61 µM | 28.3 µM | 2.52 | 11.8 µM | 13.7 | > 77.3 µM | 2.76 | 10 µM
12 | COc1ccc(NC(=O)CCc2cc(C(C)(C)C)n[nH]2)cc1 |  | > 100 µM |  | > 100 |  | > 100 µM |  | > 100 µM |  | > 100 µM |  | > 100 µM |  | > 100 µM |  | > 100 µM |  | > 100 µM |  | > 100 µM
13 | COc1cc(-c2ccc(NC(=O)NC3CC3)c(OC)c2)ccc1NC(=O)NC1CC1 | 3.89 | > 100 µM | 7.05 | > 100 | > 100 | > 100 µM | 5.28 | > 100 µM | 3.33 | > 100 µM | 7.25 µM | > 100 µM | 35.5 µM | > 100 µM | > 29.3 | > 100 µM | 12.4 | > 100 µM | 5.71 | > 100 µM
14 | Cc1nc(Nc2ccccc2)sc1C(=O)CC(=O)C(=O)NC12CC3CC(CC(C3)C1)C2 |  | > 100 µM |  | > 100 |  | 73 µM |  | > 100 µM |  | > 100 µM |  | > 100 µM |  | > 100 µM |  | > 100 µM |  | > 100 µM |  | > 100 µM
15 | COc1ccc(/C=C\c2cc(OC)c(OC)c(OC)c2)c(O)c1O | 0.0754 | > 70.1 µM and 88.7 µM |  | 57.7 | 3.76 | 70.1 µM and 96.1 µM | 0.0568 | 7.42 µM and 25.4 µM | 0.456 | 20.8 µM and 3.4 µM | 0.297 µM and 0.05 µM | 1.69 µM and 1.62 µM | 0.0705 µM | 33.3 µM and 7.62 µM | 0.655 | 49.6 µM and 60.2 µM | 0.142 | 28.7 µM and 52.3 µM | 0.238 | 17 µM and 6.88 µM
16 | CN(C)CCNC(=O)c1cccc2ncc(-c3ccccc3)nc12 |  | > 74.9 µM |  | > 94.3 |  | 34.3 µM |  | 29.4 µM |  | 9.35 µM |  | 31.3 µM |  | 27.9 µM |  | 36.1 µM |  | 31.3 µM |  | 27.2 µM
